Columns and labels:
[1] = LD50 (acute toxicity, i.g.); details: in vivo, po, species not given
Shay Rat = test: antisecretory activity (Shay Rat); format: in vivo; details: i.g.
[2] = antiphlogistic (anti-inflammatory) activity; format: in vivo
Guinea pig cough = Guinea pig cough (Antitussive); format: in vivo; details: Example 8 250 mg/kg equivalent to 150 mg/kg codeine
analgesic activity = format: in vivo; details: dose not given

SMILES | LD50 [1] [mg/kg] | Activity: Guinea pig cough (Antitussive), equivalent dose (Guinea pig cough) [mg/kg] | other results
CC(C)C(=O)N=C1N=S(=O)(c2ccccc2)c2ccccc21 (stereo not shown) [Example 7, 3-(Isobutyrylimino)-1-phenyl-3H-1,2-benzisothiazole-1-oxide] | 600 |  | Activity: antisecretory (dose) (Shay Rat): 100 mg/kg
CCOC(=O)N=C1N=S(=O)(c2ccccc2)c2ccccc21 (stereo not shown) [Example 12, 3-(Ethoxycarbonylimino)-1-phenyl-3H-1,2-benzisothiazole-1-oxide] | 1600 |  | Activity: antiphlogistic (dose) ([2]; dose at which antiphlogistic activity is stated, route and species not given): 250 mg/kg
CS1(=O)=NC(=NC(=O)c2ccccc2O)c2ccccc21 (stereo not shown) [Example 8, 3-(Salicyloylimino)-1-methyl-3H-1,2-benzisothiazole-1-oxide] | 1600 | 250 | 
COc1ccc2c3c1O[C@H]1[C@@H](O)C=C[C@H]4[C@@H](C2)N(C)CC[C@@]341 [codeine, reference compound] |  | 150 | 
CCC(=O)N=C1N=S(=O)(c2ccccc2)c2ccccc21 (stereo not shown) [Example 6, 3-(Propionylimino)-1-phenyl-3H-1,2-benzisothiazole-1-oxide] | 1600 |  | Activity: antiphlogistic / anti-inflammatory (in words) ([2]; dose not given): Antiphlogistic; Activity: analgesic (in words) (analgesic activity): analgesic
